As usually defined, the NOAEL is the highest tested level that showed no adverse finding.

≈ marks a conversion by molar mass, not a printed value.

One data set has as its system Apis mellifera. Particulars: acute; duration: 48 hours; oral; unspecified; mortality.
For a further data set, the system named is Bibionidae. The conditions noted are these: chronic/long-term; duration: 28 days; development.
Another data set concerns Colinus virginianus. The conditions noted are these: for LD50: acute, oral.
Another data set has as its system Cyprinus carpio. Particulars: acute; duration: 96 hours; mortality.
For the next data set, the system named is Daphnia magna. Particulars: chronic/long-term; duration: 21 days; reproduction.
A further data set deals with Mus musculus. The conditions noted are these: chronic; duration: 18 months; histopathology: neoplastic.
The next data set concerns Oryctolagus sp. The conditions noted are these: reproduction developmental; body weight.
In the next data set the test system is Pimephales promelas. Particulars: chronic/long-term; duration: 28 days; growth.
The next data set has as its system Tagia sp. The conditions noted are these: mortality.
Another data set has as its system Aphidius rhopalosiphi. Put plainly: LR50; higher = less toxic. The conditions noted are these: acute; duration: 48 hours; mortality.
For the next data set, the system named is Typhlodromus pyri. The experiment in a line: LR50; higher = less toxic. Particulars: acute; duration: 7 days; mortality.

As for `Cc1c(Br)c2ccc(F)cc2n1S(=O)(=O)c1ncn(S(=O)(=O)N(C)C)n1` [Amisulbrom], the LD50 was more than 100 µg/piece in the data set with Apis mellifera; more than 2000 mg/kg-day in the data set with Colinus virginianus; more than 1080 mg/kg-day in the data set on Colinus virginianus (diet); more than 5000 mg/kg-day in the data set on Rattus norvegicus (acute, oral). For the same compound, the NOEC in the data set on Bibionidae stood at 0.111 mg/L; in the data set on Colinus virginianus (reproduction developmental), 34.2 mg/kg-day; in the data set on Daphnia magna, 0.0197 mg/L; with Pimephales promelas, 0.037 mg/L; in the data set on Tagia sp. (chronic/long-term, duration: 28 days), 93.7 mg/kg. The LC50 is 0.0229 µg/mL (≈ 0.0491 µM) in the data set on Cyprinus carpio and more than 1000 mg/kg in the data set on Tagia sp. (acute, duration: 14 days). In addition, the NOAEL in the data set with Mus musculus was 11.6 mg/kg-day; in the data set on Oryctolagus sp., 30 mg/kg-day; with Rattus norvegicus (chronic, duration: 2 years, histopathology: neoplastic) it was 11.1 mg/kg-day; with Rattus norvegicus (reproduction developmental, reproduction), 48.5 mg/kg-day. For the same compound, the LR50 with Aphidius rhopalosiphi and in the data set with Typhlodromus pyri was more than 1000 g/ha in each case.

For the origin of these results see EPA's ToxValDB 9.5 (doi:10.2903/j.efsa.2014.3237).
